Measurements taken from patent US7294642B2, “1,3-Diamino-2-hydroxypropane pro-drug derivatives” (Elan Pharmaceuticals, Inc., priority 2002, dated 2007).

Experiment: Acyl group migration (rearrangement) of pro-drug in DMSO-d6/buffer solution monitored by 19F-NMR
Type: physicochemical
Protocol: A compound of formula (I) OR (X) (5 mg) is dissolved in DMSO-d6 (500 μL) and either pH 4 buffer solution (500 μL, potassium hydrogen phthalate buffer) or pH 7 buffer solution (500 μL, sodium and potassium phosphate buffer) is added. The sample is then heated to 40° C. The O-acyl or N-acyl to N-terminal N-acyl migration is monitored by observing the change in chemical shift for the aromatic fluorines using ^19F-NMR. (Fluorine shifts associated with the desired migration were confirmed by spiking with authentic analogue). The sample is analyzed by ^19F-NMR at approxiamately 0, 1.5, 3, 24, 48, and 144 hours. The amount of O-acyl pro-drug, N-acyl pro-drug, and desired migration product at each time point are assigned by integrating the corresponding NMR signal.
N˜1˜-[(2R,3S)-3-amino-4-(3,5-difluorophenyl)-2-hydroxybutyl]-5-(1,3-oxazol-2-yl)-N˜3˜,N˜3˜-dipropyl-N˜1˜-[3-(trifluoromethyl)benzyl]isophthalamide hydrochloride (PREPARATION 7, 5 mg) is dissolved in DMSO-d6 (500 μL) and pH 4 buffer solution (500 μL, potassium hydrogen phthalate buffer) is added. The sample is then heated to 40° C. The N-acyl to N-terminal N-acyl migration is monitored by observing the change in chemical shift for the aromatic fluorines using ^19F-NMR. (Fluorine shifts for the desired migration product in the presence of buffer was confirmed by spiking with authentic migration product, N^1-((1S,2R)-1-(3,5-difluorobenzyl)-2-hydroxy-3-{[3-(trifluoromethyl)benzyl]amino}propyl)-5-(1,3-oxazol-2-yl)-N^3,N^3-dipropylisophthalamide.) NMR data is collected at 0, 1, 3, 25, 48, 96, and 144 hours. The amount of N-acyl pro-drug and desired migration product present at each time point is assigned by integrating the corresponding NMR signal.
The following examples illustrate the solution acyl group migration of compounds of the formulae (I) and (X) as observed by ^19F NMR spectroscopy. Data were collected as described in Example 1, above.

CCCN(CCC)C(=O)c1cc(C(=O)O[C@H](CNC2(c3cccc(CC)c3)CC2)[C@@H](N)Cc2cc(F)cc(F)c2)cc(-c2ncco2)c1.Cl.Cl [Preparation 17, (1R,2S)-2-amino-3-(3,5-difluorophenyl)-1-({[1-(3-ethylphenyl)cyclopropyl]amino}methyl)propyl 3-[(dipropylamino)carbonyl]-5-(1,3-oxazol-2-yl)benzoate dihydrochloride]
HEA product (% present) (pH 4, 40° C., time 0 hr): 0%
N-acyl prodrug (% present) (pH 4, 40° C., time 0 hr): 0%
O-acyl pro-drug (% present) (pH 4, 40° C., time 0 hr): 100%
HEA product (% present) (pH 4, 40° C., time 1.5 hr): 47%
N-acyl prodrug (% present) (pH 4, 40° C., time 1.5 hr): 0%
O-acyl pro-drug (% present) (pH 4, 40° C., time 1.5 hr): 53%
HEA product (% present) (pH 4, 40° C., time 3 hr): 67%
N-acyl prodrug (% present) (pH 4, 40° C., time 3 hr): 0%
O-acyl pro-drug (% present) (pH 4, 40° C., time 3 hr): 33%
HEA product (% present) (pH 4, 40° C., time 6 hr): 89%
N-acyl prodrug (% present) (pH 4, 40° C., time 6 hr): 0%
O-acyl pro-drug (% present) (pH 4, 40° C., time 6 hr): 11%
HEA product (% present) (pH 4, 40° C., time 24 hr): 100%
N-acyl prodrug (% present) (pH 4, 40° C., time 24 hr): 0%
O-acyl pro-drug (% present) (pH 4, 40° C., time 24 hr): 0%
HEA product (% present) (pH 7, 40° C., time 0 hr): 0%
N-acyl prodrug (% present) (pH 7, 40° C., time 0 hr): 0%
O-acyl pro-drug (% present) (pH 7, 40° C., time 0 hr): 100%
HEA product (% present) (pH 7, 40° C., time 1.5 hr): 97%
N-acyl prodrug (% present) (pH 7, 40° C., time 1.5 hr): 0%
O-acyl pro-drug (% present) (pH 7, 40° C., time 1.5 hr): 3%
N-acyl prodrug (% present) (pH 7, 40° C., time 7 hr): 0%
N-acyl prodrug (% present) (pH 7, 40° C., time 24 hr): 0%
N-acyl prodrug (% present) (pH 7, 40° C., time 48 hr): 0%
N-acyl prodrug (% present) (pH 7, 40° C., time 144 hr): 0%

CCCN(CCC)C(=O)c1cc(C(=O)O[C@H](CNCc2cccc(C(F)(F)F)c2)[C@@H](N)Cc2cc(F)cc(F)c2)cc(-c2ncco2)c1.Cl.Cl [Preparation 18, (1R,2S)-2-amino-3-(3,5-uorophenyl)-1-({[3-(trifluoromethyl)benzyl]amino}methyl)propyl 3-[(dipropylamino)carbonyl]-5-(1,3-oxazol-2-yl)benzoate dihydrochloride]
HEA product (% present) (pH 4, 40° C., time 0 hr): 0%
N-acyl prodrug (% present) (pH 4, 40° C., time 0 hr): 0%
O-acyl pro-drug (% present) (pH 4, 40° C., time 0 hr): 100%
HEA product (% present) (pH 4, 40° C., time 1.5 hr): 54%
N-acyl prodrug (% present) (pH 4, 40° C., time 1.5 hr): 14%
O-acyl pro-drug (% present) (pH 4, 40° C., time 1.5 hr): 32%
HEA product (% present) (pH 4, 40° C., time 3 hr): 74%
N-acyl prodrug (% present) (pH 4, 40° C., time 3 hr): 18%
O-acyl pro-drug (% present) (pH 4, 40° C., time 3 hr): 8%
HEA product (% present) (pH 4, 40° C., time 30 hr): 79%
N-acyl prodrug (% present) (pH 4, 40° C., time 30 hr): 21%
O-acyl pro-drug (% present) (pH 4, 40° C., time 30 hr): 0%
HEA product (% present) (pH 4, 40° C., time 54 hr): 80%
N-acyl prodrug (% present) (pH 4, 40° C., time 54 hr): 20%
O-acyl pro-drug (% present) (pH 4, 40° C., time 54 hr): 0%
HEA product (% present) (pH 4, 40° C., time 126 hr): 86%
N-acyl prodrug (% present) (pH 4, 40° C., time 126 hr): 14%
O-acyl pro-drug (% present) (pH 4, 40° C., time 126 hr): 0%
HEA product (% present) (pH 7, 40° C., time 0 hr): 0%
N-acyl prodrug (% present) (pH 7, 40° C., time 0 hr): 0%
O-acyl pro-drug (% present) (pH 7, 40° C., time 0 hr): 100%
HEA product (% present) (pH 7, 40° C., time 1.5 hr): 34%
N-acyl prodrug (% present) (pH 7, 40° C., time 1.5 hr): 66%
O-acyl pro-drug (% present) (pH 7, 40° C., time 1.5 hr): 0%
HEA product (% present) (pH 7, 40° C., time 7 hr): 41%
N-acyl prodrug (% present) (pH 7, 40° C., time 7 hr): 59%
O-acyl pro-drug (% present) (pH 7, 40° C., time 7 hr): 0%
HEA product (% present) (pH 7, 40° C., time 24 hr): 57%
N-acyl prodrug (% present) (pH 7, 40° C., time 24 hr): 43%
O-acyl pro-drug (% present) (pH 7, 40° C., time 24 hr): 0%
HEA product (% present) (pH 7, 40° C., time 48 hr): 73%
N-acyl prodrug (% present) (pH 7, 40° C., time 48 hr): 27%
O-acyl pro-drug (% present) (pH 7, 40° C., time 48 hr): 0%
HEA product (% present) (pH 7, 40° C., time 144 hr): 84%
N-acyl prodrug (% present) (pH 7, 40° C., time 144 hr): 16%
O-acyl pro-drug (% present) (pH 7, 40° C., time 144 hr): 0%

CCCN(CCC)C(=O)c1cc(C(=O)N(Cc2cccc(CC)c2)C[C@@H](O)[C@@H](N)Cc2cc(F)cc(F)c2)cc(-c2ncco2)c1.Cl [Preparation 19, N^1-[(2R,3S)-3-amino-4-(3,5-difluorophenyl)-2-hydroxybutyl]-N\(u)1\(d)-(3-ethylbenzyl)-5-(1,3-oxazol-2-yl)-N^3,N^3-dispropylisophthalamide hydrochloride]
HEA product (% present) (pH 4, 40° C., time 0 hr): 0%
N-acyl prodrug (% present) (pH 4, 40° C., time 0 hr): 100%
O-acyl pro-drug (% present) (pH 4, 40° C., time 0 hr): 0%
HEA product (% present) (pH 4, 40° C., time 1 hr): 0%
N-acyl prodrug (% present) (pH 4, 40° C., time 1 hr): 100%
O-acyl pro-drug (% present) (pH 4, 40° C., time 1 hr): 0%
HEA product (% present) (pH 4, 40° C., time 3 hr): 0%
N-acyl prodrug (% present) (pH 4, 40° C., time 3 hr): 100%
O-acyl pro-drug (% present) (pH 4, 40° C., time 3 hr): 0%
HEA product (% present) (pH 4, 40° C., time 24 hr): 3%
N-acyl prodrug (% present) (pH 4, 40° C., time 24 hr): 97%
O-acyl pro-drug (% present) (pH 4, 40° C., time 24 hr): 0%
HEA product (% present) (pH 4, 40° C., time 48 hr): 5%
N-acyl prodrug (% present) (pH 4, 40° C., time 48 hr): 95%
O-acyl pro-drug (% present) (pH 4, 40° C., time 48 hr): 0%
HEA product (% present) (pH 4, 40° C., time 96 hr): 8%
N-acyl prodrug (% present) (pH 4, 40° C., time 96 hr): 92%
O-acyl pro-drug (% present) (pH 4, 40° C., time 96 hr): 0%
HEA product (% present) (pH 7, 40° C., time 0 hr): 0%
N-acyl prodrug (% present) (pH 7, 40° C., time 0 hr): 100%
O-acyl pro-drug (% present) (pH 7, 40° C., time 0 hr): 0%
HEA product (% present) (pH 7, 40° C., time 1 hr): 3%
N-acyl prodrug (% present) (pH 7, 40° C., time 1 hr): 97%
O-acyl pro-drug (% present) (pH 7, 40° C., time 1 hr): 0%
HEA product (% present) (pH 7, 40° C., time 3 hr): 9%
N-acyl prodrug (% present) (pH 7, 40° C., time 3 hr): 91%
O-acyl pro-drug (% present) (pH 7, 40° C., time 3 hr): 0%
HEA product (% present) (pH 7, 40° C., time 24 hr): 40%
N-acyl prodrug (% present) (pH 7, 40° C., time 24 hr): 60%
O-acyl pro-drug (% present) (pH 7, 40° C., time 24 hr): 0%
HEA product (% present) (pH 7, 40° C., time 48 hr): 63%
N-acyl prodrug (% present) (pH 7, 40° C., time 48 hr): 37%
O-acyl pro-drug (% present) (pH 7, 40° C., time 48 hr): 0%
HEA product (% present) (pH 7, 40° C., time 96 hr): 81%
N-acyl prodrug (% present) (pH 7, 40° C., time 96 hr): 19%
O-acyl pro-drug (% present) (pH 7, 40° C., time 96 hr): 0%
